The record followed here is US6432403B1, “Antibodies to polypeptides having prenylcysteine carboxyl methlytransferase activity or inhibiting activity” (New York University, priority 1997, dated 2002).

In test [1] the target is T1, human pcCMT (Homo sapiens, UniProt O60725).
T1 construct: The 3.6-kb full-length HL60 pcCMT cDNA and an 852-bp cDNA fragment comprising the ORF were subcloned into the eukaryotic expression vectors; expressed in transfected cells; host or cells: COS-1 cells (pCDM8 vector, DEAE-dextran transfection); light membranes after nitrogen cavitation
The experiment in a line: Carboxyl methylation of prenylcysteine analogs (AFC, AGGC) as defined substrates by the recombinant enzyme in COS-1 membranes. The test is classed as biochemical. Here is the method:
Prenylcysteine Carboxyl Methyltransferase Assays: COS-1 cells transfected with HL60 pcCMT or vector alone were harvested at 48 hours with 5 mM EDTA and subjected, in parallel with human neutrophils, to nitrogen cavitation and discontinuous sucrose density centrifugation as described (Philips et al, 1991). Light membranes were assayed for pcCMT activity qualitatively by S-adenosyl-L- [methyl-^3H]methionine labeling (SDS-polyacrylamide gel electrophoresis and flurography) of Rho GTPases partially purified from neutrophil cytosol and quantitatively by carboxyl methylation of N-acetyl-S-trans,trans-farnesyl-L-cysteine (AFC) (heptane partition, alkaline hydrolysis, and measurement of vapor phase [^3H]methanol) as described (Philips et al, 1995)
To determine whether the HL60 STE14 protein homolog has prenylcysteine carboxyl methyltransferase activity, the cDNA was subcloned into a mammalian expression vector PCDM8 (Invitrogen, San Diego, Calif.) and transiently overexpressed ectopically in COS-1 cells. Membranes prepared from these cells were used as a source of recombinant enzyme. Farnesylated Ras GTPases require detergent for extraction from membranes. Therefore, geranylgeranylated neutrophil cytosolic Rho accessory protein, guanine nucleotide dissociation inhibitor (GDI), were utilized as endogenous substrates in an in vitro assay (FIGS. 5A and 5B). Untransfected COS-1 cell membranes had little pcCMT activity toward Rho proteins compared with that of membranes derived from human neutrophils (FIG. 5A). Transfection with the HL60 cDNA conferred pcCMT activity toward Rho GTPases on COS-1 membranes, and this activity was blocked by the competitive pcCMT inhibitor, AFC, with an ED50 (10 μM) identical to that for endogenous neutrophil pcCMT. Carboxyl methylation of Rac2 and RhoA by HL60 pcCMT-transfected COS-1 cell membranes was enhanced by guanosine 5′-3-O-(thio)triphosphate (GTPγS) (FIG. 5B), similar to the activity observed in neutrophil membranes (Philips et al, 1993). Carboxyl methyltransferase activity was quantitated in membranes of COS-1 cells transfected with HL60 pcCMT using prenylcysteine analogs as defined substrates (Philips et al, 1995). Untransfected COS-1 cell membranes had […] (n=5) of the pcCMT specific activity of neutrophil membranes toward AFC.
The Michaelis constants of the recombinant enzyme, Km=7 μM for AFC and 0.6 μM for AGGC, were similar to those for the endogenous neutrophil enzyme (Pillinger et al, 1994). Thus, the cDNA described above encodes authentic human myeloid pcCMT.

For test [2], the target named is T1, human pcCMT. As to the kind of experiment: Carboxyl methylation of Rho GTPases by COS-1 cell membranes expressing human pcCMT (S-adenosyl-L-[methyl-3H]methionine labeling, SDS-PAGE, fluorography). As to conditions: COS-1 membranes transfected with HL60 cDNA; read-out: ED50 for block of pcCMT activity toward Rho GTPases. The test is classed as biochemical. Here is the method: FIGS. 5A and 5B show the carboxyl methylation of ras-related GTPases by COS-1 cell membranes expressing ectopic human pcCMT. In FIG. 5A, neutrophil cytosol (CS) containing a mixture of Rho family proteins complexed with Rho-GDI (lanes 2, 3, 6, 7, 10, 11) or RhoA-GDI complexes partially purified from CS (lanes 4, 8, 12) were incubated with the methyl donor S-adenosyl-L-[methyl-^3H]methionine and light membranes derived from nitrogen cavitation of human neutrophils (lanes 1-4) or COS-1 cells transiently transfected with either human pcCMT (lanes 5-8) or vector alone (lanes 9-12). In some reactions (lanes 3, 7, 11) a competitive pcCMT inhibitor, AFC, was included. Reaction products were analyzed by SDS-PAGE and fluorography. The position of carboxyl methylated […] is indicated as is the position of protein phosphatase 2a (PP2a) that is methylated on a C-terminal leucine by an enzyme unrelated to pcCMT (Lee et al, 1993). […] Carboxyl methyltransferase activity was quantitated in membranes of COS-1 cells transfected with HL60 pcCMT using prenylcysteine analogs as defined substrates (Philips et al, 1995). […]

As a reminder, the Km is the substrate concentration at which the rate is half of its maximum.

T1 sequence (O60725 whole entry, the tested form may be a part): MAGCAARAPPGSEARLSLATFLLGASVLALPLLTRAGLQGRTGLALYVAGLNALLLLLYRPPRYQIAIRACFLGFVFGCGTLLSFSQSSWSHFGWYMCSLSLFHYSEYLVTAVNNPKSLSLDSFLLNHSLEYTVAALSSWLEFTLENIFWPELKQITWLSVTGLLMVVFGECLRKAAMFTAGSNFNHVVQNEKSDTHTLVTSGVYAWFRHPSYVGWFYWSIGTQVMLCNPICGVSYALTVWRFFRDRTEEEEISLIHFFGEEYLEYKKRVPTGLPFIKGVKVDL

With `CC(=O)N[C@@H](CSC/C=C(\C)CC/C=C(\C)CCC=C(C)C)C(=O)O` [AFC, N-acetyl-S-trans,trans-farnesyl-L-cysteine], the “Increase in carboxyl methylation of the substrate on pcCMT transfection” value in test [1] (n=2) is 20 fold. Moreover, the Km in test [1] (recombinant enzyme, read-out: Michaelis constant Km) worked out at 7 µM. Further, in test [2], the EC50 stood at 10 µM.
